Measured values published in patent publication US10851096B2, “Aryl and heteroaryl amides for use as anti-proliferative, anti-thrombotic, and anti-viral agents” (Rutgers, The State University of New Jersey, priority 2016, dated 2020).

Legend:
Akt phosphorylation = test: Gas6-inducible Akt phosphorylation in Axl-positive cancer cell lines; type: cell-based, human; details: pre-treatment with 10 μM
Description: (§1) Stable hAxl/IFN-γR1 CHO reporter cell lines (containing human Axl extracellular domains and transmembrane and intracellular domains of human IFN-γR1) were serum starved for 5 hrs±small molecule inhibitors and then stimulated with human Gas6 conditioned media±small molecule inhibitors for 30 minutes. For H1299 human non-small cell lung carcinoma and MDA-MB-231 human breast adenocarcinoma cell lines, the cells were serum starved overnight±small molecule inhibitors and stimulated with human Gas6 conditioned media±small molecule inhibitors for 30 minutes. Whole cell lysates of hAxl/IFN-γR1, H1299 and MDA-MB-231 cells were prepared using HNTG buffer (20 mM HEPES, pH 7.5, 150 mM NaCl, 10% glycerol, 1% Triton X-100, 1 mM PMSF, 1 mM Na3VO4, 10 mM Na2MoO4, 1 mM EDTA, 10 mM NaF and 20 μg/mL aprotinin). The resulting lysates were resolved on SDS-PAGE gel and immunoblotted with respective antibodies.

Axl/Gas6 interaction = target: T1, Axl/Gas6 interaction (Homo sapiens, UniProt P30530); test: Pull-down competitive inhibition assay of Gas6 binding to His-tagged soluble Axl; details: His-tagged soluble Axl Ig1/Ig2 with recombinant Gas6
T1 construct: His-tagged soluble Axl Ig1/Ig2 recombinant proteins; Amgen (Gas6 only)
Description: 400 nM His tagged-sAxl were co-incubated with increasing amounts of compound 1A (0, 5, 10 or 20 μM) in a 50 μl reaction mixture of Tris-Nacl Buffer (20 mM Tris.HCl, 150 mM NaCl, pH 8.0), and incubated at 37° C. for 60 minutes, with intermittent mixing. Thereafter, equal amount of hGas6 (100 nM) was added to each tube and incubated at 37° C. for another 60 minutes, with intermittent mixing. To each of the tubes, 1 μg of 6×-His antibody was added and the mixture was incubated overnight at 4° C. on a rotary mixer. After overnight incubation, 30 μl of Protein A/G PLUS agarose beads (Santa Cruz) were added into each of the tubes and incubated for an hour at 4° C. The mixtures were centrifuged and the pellets were then washed four times in ice-cold Nonidet P-40 buffer (20 mM Tris.HCl, 150 mM NaCl, pH 8.0 and 1% Nonidet P-40). Pellets were re-suspended in 30 μl of 2× sample loading dye and boiled for 5 min at 95° C. The samples were fractionated by SDS-PAGE and bound Gas6 was analyzed by immunoblotting.

native Axl = target: T2, native Axl (Homo sapiens, UniProt P30530); test: Gas6-inducible phosphorylation of native Axl in H1299 cells (immunoblot); type: cell-based; details: H1299 lung cancer cell line, FIG. 5B
T2 construct: Gas6-inducible phosphorylation of native Axl (pAxl); endogenous in cells; host or cells: MDA-MB-231
T2 sequence (P30530 26-894): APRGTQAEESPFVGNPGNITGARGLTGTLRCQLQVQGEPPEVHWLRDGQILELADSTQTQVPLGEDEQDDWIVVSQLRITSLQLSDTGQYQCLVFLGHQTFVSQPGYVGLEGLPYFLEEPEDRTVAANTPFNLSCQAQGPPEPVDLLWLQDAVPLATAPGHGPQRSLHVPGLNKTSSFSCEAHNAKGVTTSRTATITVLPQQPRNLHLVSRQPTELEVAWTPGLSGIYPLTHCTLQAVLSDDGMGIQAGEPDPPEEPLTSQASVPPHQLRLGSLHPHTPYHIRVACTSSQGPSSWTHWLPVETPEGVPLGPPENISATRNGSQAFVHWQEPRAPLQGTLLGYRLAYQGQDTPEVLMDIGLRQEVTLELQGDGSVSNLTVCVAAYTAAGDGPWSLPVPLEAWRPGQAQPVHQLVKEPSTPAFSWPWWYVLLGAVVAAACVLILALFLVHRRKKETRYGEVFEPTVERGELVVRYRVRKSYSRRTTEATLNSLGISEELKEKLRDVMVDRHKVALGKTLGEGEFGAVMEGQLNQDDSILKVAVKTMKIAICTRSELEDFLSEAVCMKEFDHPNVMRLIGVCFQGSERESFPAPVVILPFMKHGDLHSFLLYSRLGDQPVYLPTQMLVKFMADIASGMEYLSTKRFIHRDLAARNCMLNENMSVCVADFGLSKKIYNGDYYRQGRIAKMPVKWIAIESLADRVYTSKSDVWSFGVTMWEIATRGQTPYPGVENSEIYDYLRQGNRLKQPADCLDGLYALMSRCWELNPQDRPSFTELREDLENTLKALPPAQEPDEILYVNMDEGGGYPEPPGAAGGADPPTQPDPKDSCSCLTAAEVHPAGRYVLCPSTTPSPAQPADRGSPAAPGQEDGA
Description: as §1
Immunoblot data were obtained within a linear range of exposure, and intensities were quantified by ImageJ. The levels of hAxl/IFN-γR1 cells lines activation were measured by pSTAT1 whereas the levels of H1299 and MDA-MB-231 cell lines activation were measured by pAxl signal intensities. Blots were normalized to intensities of respective β-actin or GAPDH protein loading controls. […]

H1299 cells [1] = test: Colony forming assay, H1299; type: cell-based, human; details: H1299 cultured in the presence of Gas6
Description: H1299 cells were plated in 6 well plates at a very low density (˜250 cells/well). Next day, the cells were treated with the SMIs at different concentrations. The cells were incubated with the drugs for 14 days. After 14 days, colonies were stained with 0.25% crystal violet in 95% ethanol. Colonies consisting of more than 50 cells were counted.

H1299 cells [2] = test: Real-time migration assay (RTCA DP Xcelligence), H1299; type: cell-based, human; details: Gas6-inducible H1299 cells
Description: H1299 and MDA-MB-231 cells lines were seeded in complete medium and allowed to attain ˜80% confluence and then serum starved overnight in medium containing 0.5% FBS. The cells were then detached by Accutase (Sigma), counted and resuspended in serum-free RPMI-1640 medium. In the lower chamber of the CIM plate, 1×RPMI-1640 containing 10% FBS was added as a chemoattractant. In the top chamber, 50 μl of 1×RPMI-1640 was added to all wells. Both chambers were assembled, loaded in the Xcelligence system, and run for 30 min for equilibration or background readings. One hundred microliters of each cell line suspended in 1×RPMI-1640 (40,000 cells/100 μl)±Gas6±small molecule inhibitors then were added in triplicates in upper chamber wells. Readings for changes in the cell index (CI) were taken every 10 min for 24 h and migration was shown as a change in cell index versus time.

| Structure (SMILES) | Gas6-inducible Akt phosphorylation (Akt phosphorylation) | inhibition of Axl/Gas6 interaction in vitro (Axl/Gas6 interaction) | inhibition of activation (phosphorylation) of Axl (native Axl) | clonogenic growth (H1299 cells [1]) | motility (real-time, cell index) (H1299 cells [2]) |
| --- | --- | --- | --- | --- | --- |
| Cc1noc(C)c1CSc1ccccc1C(=O)N1CCN(c2cccc(C(F)(F)F)c2)CC1 [1I] | abrogated | able to inhibit in vitro the Axl/Gas6 interaction in a dose-dependent manner | potent inhibition | suppressed clonogenic growth | suppressed motility |
| Cc1cc(CSc2ccccc2C(=O)NCCNc2ccc(C(F)(F)F)cc2[N+](=O)[O-])on1 [1Q] | abrogated | able to inhibit in vitro the Axl/Gas6 interaction in a dose-dependent manner | potent inhibition | suppressed clonogenic growth | suppressed motility |
